Peptide text beside a SMILES is read from it.
Legend:
Format in all cases: cell-based
human GLP-1 receptor = target: T1, human GLP-1 receptor (Homo sapiens, UniProt P43220); assay: HTRF cAMP assay in HEK-293 cells expressing human GLP-1 receptor; details: HEK-293 cells; read-out: HTRF cAMP EC50 Human GLP-1R
T1 construct: expressed in transfected cells; host or cells: PSC-HEK-293
Description: Each vial contained 1.8 ml cells. The vials were slowly frozen to −80° C. in isopropanol, and then transferred in liquid nitrogen for storage.
Cells were resuspended in assay buffer (cell buffer plus 2 mM IBMX) and adjusted to a cell density of 1 million cells/ml.
For measurement of cAMP generation, 5 μl cells (final 5000 cells/well) and 5 μl of test compound were added to a 384-well plate, followed by incubation for 30 min at room temperature.
The cAMP generated was determined using a kit from Cisbio Corp. based on HTRF (Homogenous Time Resolved Fluorescence). The cAMP assay was performed according to manufacturer's instructions (Cisbio).

human GIP receptor = target: T2, human GIP receptor (Homo sapiens, UniProt P48546); assay: HTRF cAMP assay in HEK-293 cells expressing human GIP receptor; details: HEK-293 cells; read-out: HTRF cAMP EC50 Human GIPR
T2 construct: expressed in transfected cells; host or cells: PSC-HEK-293
T2 sequence (P48546 22-466): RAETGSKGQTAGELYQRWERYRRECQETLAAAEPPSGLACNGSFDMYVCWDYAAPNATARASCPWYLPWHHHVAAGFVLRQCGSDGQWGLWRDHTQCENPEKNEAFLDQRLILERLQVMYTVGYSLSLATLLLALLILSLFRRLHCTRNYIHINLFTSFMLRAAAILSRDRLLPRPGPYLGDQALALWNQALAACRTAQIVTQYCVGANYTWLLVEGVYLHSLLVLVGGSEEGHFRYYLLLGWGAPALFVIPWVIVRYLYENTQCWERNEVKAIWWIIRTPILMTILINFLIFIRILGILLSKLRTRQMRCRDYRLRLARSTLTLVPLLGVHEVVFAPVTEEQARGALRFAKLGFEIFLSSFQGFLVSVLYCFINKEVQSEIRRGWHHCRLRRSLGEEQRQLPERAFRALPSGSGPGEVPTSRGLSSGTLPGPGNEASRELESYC

[1] = target: T3, human glucagon (GCG) receptor (Homo sapiens, UniProt P47871); assay: HTRF cAMP assay in HEK-293 cells expressing human glucagon receptor; details: HEK-293 cells; read-out: HTRF cAMP EC50 Human GCGR
T3 construct: expressed in transfected cells; host or cells: PSC-HEK-293
T3 sequence (P47871 26-477): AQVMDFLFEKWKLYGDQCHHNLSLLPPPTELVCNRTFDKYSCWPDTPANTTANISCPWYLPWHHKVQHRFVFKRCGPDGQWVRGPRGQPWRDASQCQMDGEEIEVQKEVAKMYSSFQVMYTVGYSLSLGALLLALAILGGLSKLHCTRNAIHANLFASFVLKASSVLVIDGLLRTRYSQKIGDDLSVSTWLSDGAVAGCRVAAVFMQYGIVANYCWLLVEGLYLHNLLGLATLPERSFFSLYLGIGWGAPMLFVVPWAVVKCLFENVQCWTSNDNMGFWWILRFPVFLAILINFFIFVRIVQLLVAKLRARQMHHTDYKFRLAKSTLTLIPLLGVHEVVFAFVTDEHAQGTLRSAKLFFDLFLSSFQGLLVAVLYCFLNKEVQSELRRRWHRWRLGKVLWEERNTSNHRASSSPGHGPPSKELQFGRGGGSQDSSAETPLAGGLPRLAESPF

T1 sequence (P43220 24-463): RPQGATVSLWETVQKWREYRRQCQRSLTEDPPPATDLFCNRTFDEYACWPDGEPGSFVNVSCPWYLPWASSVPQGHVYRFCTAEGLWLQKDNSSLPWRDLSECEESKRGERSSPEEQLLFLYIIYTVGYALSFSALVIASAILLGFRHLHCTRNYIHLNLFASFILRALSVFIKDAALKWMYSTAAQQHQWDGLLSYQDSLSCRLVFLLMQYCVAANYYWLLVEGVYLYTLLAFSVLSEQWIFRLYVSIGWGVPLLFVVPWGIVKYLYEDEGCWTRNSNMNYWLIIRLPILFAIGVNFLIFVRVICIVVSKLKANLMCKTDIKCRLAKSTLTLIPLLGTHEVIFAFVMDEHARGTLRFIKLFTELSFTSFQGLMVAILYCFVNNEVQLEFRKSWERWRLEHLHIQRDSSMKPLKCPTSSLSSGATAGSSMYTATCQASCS

Compound	EC50 (human GLP-1 receptor) [nM]	EC50 (human GIP receptor) [nM]	EC50 [1] [nM]
CC[C@H](C)[C@H](NC(=O)[C@H](CC(C)C)NC(=O)[C@H](Cc1c[nH]c2ccccc12)NC(=O)[C@H](Cc1ccc(O)cc1)NC(=O)[C@@H](NC(=O)[C@H](Cc1ccccc1)NC(=O)[C@H](CC(C)C)NC(=O)[C@H](CCCNC(=N)N)NC(=O)[C@@H](NC(=O)[C@H](CC(C)C)NC(=O)[C@H](CCCNC(=N)N)NC(=O)[C@H](CCCCN)NC(=O)[C@H](CCC(=O)O)NC(=O)[C@H](CC(C)C)NC(=O)[C@H](CCC(N)=O)NC(=O)[C@H](CCCCN)NC(=O)[C@H](CO)NC(=O)[C@H](CCCCN)NC(=O)[C@H](CC(=O)O)NC(=O)[C@H](CO)NC(=O)[C@@H](NC(=O)[C@H](Cc1ccccc1)NC(=O)[C@@H](NC(=O)CNC(=O)[C@H](CCC(=O)O)NC(=O)CNC(=O)[C@@H](N)Cc1c[nH]cn1)[C@@H](C)O)[C@@H](C)O)C(C)C)[C@@H](C)CC)C(=O)N[C@@H](C)C(=O)NCC(=O)NCC(=O)N[C@@H](Cc1c[nH]cn1)C(=O)N[C@@H](CO)C(=O)N[C@@H](CO)C(=O)NCC(=O)N[C@@H](CCCCN)C(=O)N1CCC[C@H]1C(=O)N1CCC[C@H]1C(=O)N1CCC[C@H]1C(=O)N[C@@H](CCCCN)C(N)=O [Ab P024] (H-HGEGTFTSDKSKQLEKRLVRLFIYWLIAGGHSSGKPPPK-NH2; N-terminus assumed)	0.0026	≥ 10	> 10
CC[C@H](C)[C@H](NC(=O)[C@H](CC(C)C)NC(=O)[C@H](Cc1c[nH]c2ccccc12)NC(=O)[C@H](Cc1ccc(O)cc1)NC(=O)[C@@H](NC(=O)[C@H](Cc1ccccc1)NC(=O)[C@H](CC(C)C)NC(=O)[C@H](CCCNC(=N)N)NC(=O)[C@H](CCC(N)=O)NC(=O)[C@H](CC(C)C)NC(=O)[C@H](CCCNC(=N)N)NC(=O)[C@H](CCCCN)NC(=O)[C@H](CCC(=O)O)NC(=O)[C@H](CC(C)C)NC(=O)[C@H](CCC(N)=O)NC(=O)[C@H](CCCCN)NC(=O)[C@H](CO)NC(=O)[C@H](CC(C)C)NC(=O)[C@H](CC(=O)O)NC(=O)[C@H](CO)NC(=O)[C@@H](NC(=O)[C@H](Cc1ccccc1)NC(=O)[C@@H](NC(=O)CNC(=O)[C@H](CCC(=O)O)NC(=O)CNC(=O)[C@@H](N)Cc1c[nH]cn1)[C@@H](C)O)[C@@H](C)O)[C@@H](C)CC)C(=O)N[C@@H](C)C(=O)NCC(=O)NCC(=O)N[C@@H](Cc1c[nH]cn1)C(=O)N[C@@H](CO)C(=O)N[C@@H](CO)C(=O)NCC(=O)N[C@@H](CCCCN)C(=O)N1CCC[C@H]1C(=O)N1CCC[C@H]1C(=O)N1CCC[C@H]1C(=O)N[C@@H](CCCCN)C(N)=O [Ab P025] (H-HGEGTFTSDLSKQLEKRLQRLFIYWLIAGGHSSGKPPPK-NH2; N-terminus assumed)	0.0016	1.6	0.545
CC[C@H](C)[C@H](NC(=O)[C@H](Cc1ccccc1)NC(=O)[C@H](CC(C)C)NC(=O)[C@H](CCCNC(=N)N)NC(=O)[C@H](CCC(N)=O)NC(=O)[C@H](CC(C)C)NC(=O)[C@H](CCCNC(=N)N)NC(=O)[C@H](CCCCN)NC(=O)[C@H](CCC(=O)O)NC(=O)[C@H](CC(C)C)NC(=O)[C@H](CCC(N)=O)NC(=O)[C@H](CCCCN)NC(=O)[C@H](CO)NC(=O)[C@H](CC(C)C)NC(=O)[C@H](CC(=O)O)NC(=O)[C@H](CO)NC(=O)[C@@H](NC(=O)[C@H](Cc1ccccc1)NC(=O)[C@@H](NC(=O)CNC(=O)[C@H](CCC(=O)O)NC(=O)CNC(=O)[C@@H](N)Cc1c[nH]cn1)[C@@H](C)O)[C@@H](C)O)C(=O)N[C@@H](Cc1ccc(O)cc1)C(=O)N[C@@H](Cc1c[nH]c2ccccc12)C(=O)N[C@@H](CC(C)C)C(=O)N[C@@H](CCCCN)C(=O)N[C@@H](C)C(=O)NCC(=O)NCC(=O)N[C@@H](Cc1c[nH]cn1)C(=O)N[C@@H](CO)C(=O)N[C@@H](CO)C(=O)NCC(=O)N[C@@H](CCCCN)C(=O)N1CCC[C@H]1C(=O)N1CCC[C@H]1C(=O)N1CCC[C@H]1C(=O)N[C@@H](CCCCN)C(N)=O [Ab P026] (H-HGEGTFTSDLSKQLEKRLQRLFIYWLKAGGHSSGKPPPK-NH2; N-terminus assumed)	0.002	2.48	3.9
CC[C@H](C)[C@H](NC(=O)[C@H](Cc1ccccc1)NC(=O)[C@H](CC(C)C)NC(=O)[C@H](CCCNC(=N)N)NC(=O)[C@H](CCC(N)=O)NC(=O)[C@H](C)NC(=O)[C@H](CCC(=O)O)NC(=O)[C@H](CCC(=O)O)NC(=O)[C@H](CCC(=O)O)NC(=O)[C@H](CC(C)C)NC(=O)[C@H](CCC(N)=O)NC(=O)[C@H](CCCCN)NC(=O)[C@H](CO)NC(=O)[C@H](CC(C)C)NC(=O)[C@H](CC(=O)O)NC(=O)[C@H](CO)NC(=O)[C@@H](NC(=O)[C@H](Cc1ccccc1)NC(=O)[C@@H](NC(=O)CNC(=O)[C@H](CCC(=O)O)NC(=O)CNC(=O)[C@H](Cc1c[nH]cn1)NC(=O)CN)[C@@H](C)O)[C@@H](C)O)C(=O)N[C@@H](CCC(=O)O)C(=O)N[C@@H](Cc1c[nH]c2ccccc12)C(=O)N[C@@H](CC(C)C)C(=O)N[C@@H](CCCCN)C(=O)N[C@@H](C)C(=O)NCC(=O)NCC(=O)N1CCC[C@H]1C(=O)N[C@@H](CO)C(=O)N[C@@H](CO)C(=O)NCC(=O)N[C@@H](CCCCN)C(=O)N1CCC[C@H]1C(=O)N1CCC[C@H]1C(=O)N1CCC[C@H]1C(=O)N[C@@H](CCCCN)C(N)=O [Ab P036] (H-GHGEGTFTSDLSKQLEEEAQRLFIEWLKAGGPSSGKPPPK-NH2; N-terminus assumed)	0.125	> 10	> 10
CC[C@H](C)[C@H](NC(=O)[C@H](Cc1ccccc1)NC(=O)[C@H](CC(C)C)NC(=O)[C@H](Cc1c[nH]cn1)NC(=O)[C@H](CCC(N)=O)NC(=O)[C@H](C)NC(=O)[C@H](CCC(=O)O)NC(=O)[C@H](CCC(=O)O)NC(=O)[C@H](CCC(=O)O)NC(=O)[C@H](CC(C)C)NC(=O)[C@H](CCC(N)=O)NC(=O)[C@H](CCCCN)NC(=O)[C@H](CO)NC(=O)[C@H](CC(C)C)NC(=O)[C@H](CC(=O)O)NC(=O)[C@H](CO)NC(=O)[C@@H](NC(=O)[C@H](Cc1ccccc1)NC(=O)[C@@H](NC(=O)CNC(=O)[C@H](CCC(=O)O)NC(=O)CNC(=O)[C@H](Cc1c[nH]cn1)NC(=O)CN)[C@@H](C)O)[C@@H](C)O)C(=O)N[C@@H](CCC(=O)O)C(=O)N[C@@H](Cc1c[nH]c2ccccc12)C(=O)N[C@@H](CC(C)C)C(=O)N[C@@H](CCCCN)C(=O)N[C@@H](C)C(=O)NCC(=O)NCC(=O)N1CCC[C@H]1C(=O)N[C@@H](CO)C(=O)N[C@@H](CO)C(=O)NCC(=O)N[C@@H](CCCCN)C(=O)N1CCC[C@H]1C(=O)N1CCC[C@H]1C(=O)N1CCC[C@H]1C(=O)N[C@@H](CCCCN)C(N)=O [Ab P037] (H-GHGEGTFTSDLSKQLEEEAQHLFIEWLKAGGPSSGKPPPK-NH2; N-terminus assumed)	0.158	> 10	> 10
CC[C@H](C)[C@H](NC(=O)[C@H](Cc1ccccc1)NC(=O)[C@H](CC(C)C)NC(=O)[C@H](CCC(N)=O)NC(=O)[C@@H](NC(=O)[C@H](C)NC(=O)[C@H](CCC(=O)O)NC(=O)[C@H](CCC(=O)O)NC(=O)[C@H](CCC(=O)O)NC(=O)[C@H](CC(C)C)NC(=O)[C@H](CCC(N)=O)NC(=O)[C@H](CCCCN)NC(=O)[C@H](CO)NC(=O)[C@H](CC(C)C)NC(=O)[C@H](CC(=O)O)NC(=O)[C@H](CO)NC(=O)[C@@H](NC(=O)[C@H](Cc1ccccc1)NC(=O)[C@@H](NC(=O)CNC(=O)[C@H](CCC(=O)O)NC(=O)CNC(=O)[C@H](Cc1c[nH]cn1)NC(=O)CN)[C@@H](C)O)[C@@H](C)O)C(C)C)C(=O)N[C@@H](CCC(=O)O)C(=O)N[C@@H](Cc1c[nH]c2ccccc12)C(=O)N[C@@H](CC(C)C)C(=O)N[C@@H](CCCCN)C(=O)N[C@@H](C)C(=O)NCC(=O)NCC(=O)N1CCC[C@H]1C(=O)N[C@@H](CO)C(=O)N[C@@H](CO)C(=O)NCC(=O)N[C@@H](CCCCN)C(=O)N1CCC[C@H]1C(=O)N1CCC[C@H]1C(=O)N1CCC[C@H]1C(=O)N[C@@H](CCCCN)C(N)=O [Ab P038] (H-GHGEGTFTSDLSKQLEEEAVQLFIEWLKAGGPSSGKPPPK-NH2; N-terminus assumed)	0.0524	> 10	> 10
CC[C@H](C)[C@H](NC(=O)[C@H](Cc1ccccc1)NC(=O)[C@H](CC(C)C)NC(=O)[C@H](CCCNC(=N)N)NC(=O)[C@@H](NC(=O)[C@H](C)NC(=O)[C@H](CCC(=O)O)NC(=O)[C@H](CCC(=O)O)NC(=O)[C@H](CCC(=O)O)NC(=O)[C@H](CC(C)C)NC(=O)[C@H](CCC(N)=O)NC(=O)[C@H](CCCCN)NC(=O)[C@H](CO)NC(=O)[C@H](CCCCN)NC(=O)[C@H](CC(=O)O)NC(=O)[C@H](CO)NC(=O)[C@@H](NC(=O)[C@H](Cc1ccccc1)NC(=O)[C@@H](NC(=O)CNC(=O)[C@H](CCC(=O)O)NC(=O)CNC(=O)[C@H](Cc1c[nH]cn1)NC(=O)CN)[C@@H](C)O)[C@@H](C)O)C(C)C)C(=O)N[C@@H](C)C(=O)N[C@@H](Cc1c[nH]c2ccccc12)C(=O)N[C@@H](CC(C)C)C(=O)N[C@H](C(=O)N[C@@H](CCCCN)C(N)=O)C(C)C [Ab P040] (H-GHGEGTFTSDKSKQLEEEAVRLFIAWLVK-NH2; N-terminus assumed)	0.0627	> 10	> 10

From patent US20250115669A1, “FGFR1/KLB Targeting Agonistic Antigen-Binding Proteins and Conjugates Thereof with GLP-1R Agonistic Peptides” (SANOFI, priority 2020, published 2025)
